Legend:
[1] = blind bench-top tasting panel, fortified mayonnaise; assay type: in vivo
Protocol: (§1) The following compositions are made and tested blind. Using a blind bench-top tasting panel (consisting of 4 to 8 panelists), panelists were asked to record the sensory attribute differences between the control and example samples, specifically focusing on off-notes (reduction or differences).
Fortified Mayonnaise (Smart Balance Omega Plus Light Mayonnaise Dressing—Omega-3 (500 Mg Per 15 g Serving) and Plant Sterols (100 Mg Per 15 g Serving)

[2] = off-note / off-taste masking, lowest effective level; details: in vivo
Text: (§2) There is also provided an orally-receivable or -ingestible composition comprising an off-note-masking proportion of 1-(2-hydroxyphenyl)-3-(pyridin-4-yl)propane-1-one or a salt thereof 1-(2-hydroxyphenyl)-3-(pyridin-4-yl)propane-1-one (hereinafter referred to as “Compound 1”) is disclosed in United States published application No. 2010/272656. In this publication, the compound is described as an effective sweetness enhancer. It is a surprising feature of this disclosure that the same compound can deliver an off-note- or off-taste-masking effect at a concentration far below the concentration at which it is perceived as sweet. The minimum level at which the sweetness enhancement effect of Compound 1 can be detected is 35 ppm, but the off-note- or off-taste-masking effect of the masker can be as low as 2.5 ppm. A practical maximum for off-note masking is 10 ppm.

[3] = sweetness enhancement detection level; details: in vivo
Text: as §2

[4] = blind bench-top tasting panel, soy yogurt; assay type: in vivo
Text: as §1
Soy Yogurt (O'Soy Organic Soy Yogurt Strawberry Flavor—5 g Protein Per 4 oz Serving)

[5] = blind bench-top tasting panel, cocoa; assay type: in vivo
Text: as §1
Cocoa (Dilute 10% in Water to Consume) (Kroger Cocoa Unsweetened)

[6] = blind bench-top tasting panel, proteinaceous supplement; assay type: in vivo
Text: as §1
Proteinaceous Supplement (GNC Pro Performance 100% Whey Protein)

[7] = blind bench-top tasting panel, OTC syrup; assay type: in vivo
Protocol: The following compositions are made and tested blind. Using a blind bench-top tasting panel (consisting of 4 to 8 panelists), panelists were asked to record the sensory attribute differences between the control and example samples, specifically focusing on off-notes (reduction or differences). Over-the-Counter (OTC) Syrup (Kroger Daytime Cold/Flu Relief (Acetaminophen 325 mg per 15 mL; Dextromethorphan HBr 10 mg per 15 mL; Phenylephrine HCl 5 mg per 15 mL))

[8] = 0.002% by weight in cocoa (unsweetened)
[9] = 0.0015% by weight in whey protein supplement

Structure (SMILES) | panelist preference over the control ([1]; 0.00025% by weight in fortified mayonnaise) | off-note- or off-taste-masking effect can be as low as [2] [ppm] | minimum level at which the sweetness enhancement effect can be detected [3] [ppm] | panelist preference over the control ([4]; 0.002% by weight in soy yogurt) | panelist preference over the control [5, 8] | panelist preference over the control ([6]; 0.003% by weight in whey protein supplement) | panelist preference over the control ([7]; 0.003% by weight in OTC syrup) | panelist preference over the control ([1]; 0.0005% by weight in fortified mayonnaise) | panelist preference over the control [6, 9] | panelist preference over the control ([1]; 0.001% by weight in fortified mayonnaise) | panelist preference over the control ([4]; 0.001% by weight in soy yogurt) | panelist preference over the control ([5]; 0.001% by weight in cocoa (unsweetened)) | panelist preference over the control ([7]; 0.002% by weight in OTC syrup)
O=C(CCc1ccncc1)c1ccccc1O [Compound 1, 1-(2-hydroxyphenyl)-3-(pyridin-4-yl)propane-1-one] | preferred | 2.5 | 35 | preferred | preferred | preferred | preferred |  |  |  |  |  | 
CC1CCC(CCCC(=O)O)C1(C)C (centres unmarked) [Compound 2, 4-[2,2,3-trimethyl-cyclopentyl]-butanoic acid] |  |  |  | preferred | preferred |  | preferred | preferred | preferred |  |  |  | 
CCc1c(C)c2ccc(OC(C)C(=O)O)c(C)c2oc1=O (centres unmarked) [Compound 3, 2-[(3-ethyl-4,8-dimethyl-2-oxo-2H-chromen-7-yl)oxy]propanoic acid] |  |  |  |  |  |  |  |  | preferred | preferred | preferred | preferred | preferred

Reference: patent publication US20140005153A1, “Off-Note Masking” (GIVAUDAN S. A., priority 2011, published 2014)
